Measurements published in US6737383B1, “Herbicidal oxadiazolidines” (priority 1999, dated 2004).

What was measured:
wild oat = test: Test B pre/postemergence wild oat; format: in vivo, Avena fatua
Procedure, shortened: (§1)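 Response is a visual 0-to-10 score relative to untreated plants, where 0 means no effect and 10 means complete control, taken twelve to sixteen days after application. Treatments went onto soil at planting and onto foliage of 1- to 4-leaf plants, using a surfactant-containing non-phytotoxic solvent.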

sugar beet = test: Test B pre/postemergence sugar beet; format: in vivo, Beta vulgaris
Procedure, shortened: as §1

rice = test: Test B flood test rice; format: in vivo, Oryza sativa
Procedure, shortened: (§2)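 Flood test on plants grown to the 2-leaf stage; treated plants kept in greenhouse twelve to sixteen days, then visually rated against controls on a 0 (no effect) to 10 (complete control) scale.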

bedstraw = test: Test B pre/postemergence bedstraw; format: in vivo, Galium aparine
Procedure, shortened: as §1

rape = test: Test B pre/postemergence rape; format: in vivo, Brassica napus
Procedure, shortened: as §1

smallflower flatsedge = test: Test B flood test smallflower flatsedge; format: in vivo, Cyperus difformis
Procedure, shortened: as §2

giant foxtail = test: Test B pre/postemergence giant foxtail; format: in vivo, Setaria faberii
Procedure, shortened: as §1

surinam grass = test: Test B pre/postemergence surinam grass; format: in vivo, Brachiaria decumbens
Procedure, shortened: as §1

cocklebur = test: Test B pre/postemergence cocklebur; format: in vivo, Xanthium strumarium
Procedure, shortened: as §1

wheat = test: Test B pre/postemergence wheat; format: in vivo, Triticum aestivum
Procedure, shortened: as §1

velvetleaf = test: Test B pre/postemergence velvetleaf; format: in vivo, Abutilon theophrasti
Procedure, shortened: as §1

purple nutsedge = test: Test B pre/postemergence purple nutsedge; format: in vivo, Cyperus rotundus
Procedure, shortened: as §1

soybean = test: Test B pre/postemergence soybean; format: in vivo, Glycine max
Procedure, shortened: as §1

duck salad = test: Test B flood test duck salad; format: in vivo, Heteranthera limosa
Procedure, shortened: as §2

corn = test: Test B pre/postemergence corn; format: in vivo, Zea mays
Procedure, shortened: as §1

pigweed = test: Test B pre/postemergence pigweed; format: in vivo, Amaranthus retroflexus
Procedure, shortened: as §1

[1] = Postemergence, Rate 250 g/ha, scale 0 to 10, 0 no effect, 10 complete control
[2] = Postemergence, Rate 1000 g/ha, scale 0 to 10 (0 no effect, 10 complete control)
[3] = Preemergence, Rate 125 g/ha, scale 0 to 10 (0 no effect, 10 complete control)
[4] = Preemergence, Rate 250 g/ha, scale of 0 to 10 where 0 is no effect and 10 is complete control
[5] = Preemergence, Rate 500 g/ha, scale 0 (no effect) to 10 (complete control)
[6] = Rate 125 g/ha, Postemergence, scale 0 to 10, 0 no effect, 10 complete control
[7] = Rate 1000 g/ha, Preemergence, scale 0 to 10 (0 no effect, 10 complete control)
[8] = Rate 125 g/ha, Postemergence section (flood test species), scale 0 to 10, 0 no effect, 10 complete control
[9] = Rate 500 g/ha, Postemergence section of Table B, 0 to 10 scale (0 no effect, 10 complete control)
[10] = flood test, listed under Postemergence, Rate 250 g/ha, scale 0 to 10, 0 no effect, 10 complete control
[11] = Rate 500 g/ha, Postemergence, 0 to 10 scale (0 no effect, 10 complete control)

CC(C)N(C(=O)n1oc(=O)n(-c2ccccc2Cl)c1=O)c1ccc(F)cc1 [Compound 8]
Wild oats plant response rating (wild oat; [1]): 0 | Wild oats plant response rating (wild oat; [2]): 3 | Plant response rating, Wild oats (wild oat; [3]): 0 | Plant response rating, Wild oats (wild oat; [4]): 0 | Wild oats plant response rating (wild oat; [5]): 2 | Wild oats plant response rating (wild oat; [6]): 0 | Plant response rating, Wild oats (wild oat; [7]): 3 | Sugarbeets plant response rating (sugar beet; [1]): 0 | Sugarbeets plant response rating (sugar beet; [2]): 2 | Plant response rating, Sugarbeets (sugar beet; [3]): 0 | Plant response rating, Sugarbeets (sugar beet; [4]): 0 | Sugarbeets plant response rating (sugar beet; [5]): 0 | Sugarbeets plant response rating (sugar beet; [6]): 0 | Plant response rating, Sugarbeets (sugar beet; [7]): 0 | Rice plant response rating (rice; [2]): 0 | Rice plant response rating (rice; [8]): 0 | Rice plant response rating (rice; [9]): 0 | Rice plant response rating (rice; [10]): 0 | Bedstraw plant response rating (bedstraw; [1]): 2 | Bedstraw plant response rating (bedstraw; [2]): 3 | Plant response rating, Bedstraw (bedstraw; [3]): 0 | Plant response rating, Bedstraw (bedstraw; [4]): 0 | Bedstraw plant response rating (bedstraw; [5]): 0 | Bedstraw plant response rating (bedstraw; [6]): 2 | Bedstraw plant response rating (bedstraw; [11]): 3 | Plant response rating, Bedstraw (bedstraw; [7]): 0 | Rape plant response rating (rape; [1]): 0 | Rape plant response rating (rape; [2]): 0 | Plant response rating, Rape (rape; [3]): 0 | Plant response rating, Rape (rape; [4]): 0 | Rape plant response rating (rape; [5]): 0 | Rape plant response rating (rape; [6]): 0 | Rape plant response rating (rape; [11]): 0 | Plant response rating, Rape (rape; [7]): 0 | S. Flatsedge plant response rating (smallflower flatsedge; [2]): 0 | S. Flatsedge plant response rating (smallflower flatsedge; [8]): 0 | S. Flatsedge plant response rating (smallflower flatsedge; [10]): 0 | Giant foxtail plant response rating (giant foxtail; [1]): 0 | Giant foxtail plant response rating (giant foxtail; [2]): 4 | Plant response rating, Giant foxtail (giant foxtail; [3]): 5 | Plant response rating, Giant foxtail (giant foxtail; [4]): 9 | Giant foxtail plant response rating (giant foxtail; [5]): 10 | Giant foxtail plant response rating (giant foxtail; [6]): 0 | Giant foxtail plant response rating (giant foxtail; [11]): 2 | Plant response rating, Giant foxtail (giant foxtail; [7]): 10 | B. signalgrass plant response rating (surinam grass; [1]): 0 | B. signalgrass plant response rating (surinam grass; [2]): 3 | Plant response rating, B. signalgrass (surinam grass; [3]): 0 | Plant response rating, B. signalgrass (surinam grass; [4]): 4 | B. signalgrass plant response rating (surinam grass; [5]): 5 | B. signalgrass plant response rating (surinam grass; [6]): 0 | B. signalgrass plant response rating (surinam grass; [11]): 0 | Plant response rating, B. signalgrass (surinam grass; [7]): 6 | Cocklebur plant response rating (cocklebur; [1]): 0 | Cocklebur plant response rating (cocklebur; [2]): 2 | Plant response rating, Cocklebur (cocklebur; [3]): 0 | Plant response rating, Cocklebur (cocklebur; [4]): 0 | Cocklebur plant response rating (cocklebur; [5]): 0 | Cocklebur plant response rating (cocklebur; [6]): 0 | Cocklebur plant response rating (cocklebur; [11]): 1 | Plant response rating, Cocklebur (cocklebur; [7]): 0 | Wheat plant response rating (wheat; [1]): 0 | Wheat plant response rating (wheat; [2]): 3 | Plant response rating, Wheat (wheat; [3]): 0 | Plant response rating, Wheat (wheat; [4]): 0 | Wheat plant response rating (wheat; [5]): 0 | Wheat plant response rating (wheat; [6]): 0 | Plant response rating, Wheat (wheat; [7]): 0 | Velvetleaf plant response rating (velvetleaf; [1]): 0 | Velvetleaf plant response rating (velvetleaf; [2]): 1 | Plant response rating, Velvetleaf (velvetleaf; [3]): 0 | Velvetleaf plant response rating (velvetleaf; [5]): 0 | Velvetleaf plant response rating (velvetleaf; [6]): 0 | Plant response rating, Velvetleaf (velvetleaf; [7]): 4 | Plant response rating, Nutsedge (purple nutsedge; [3]): 0 | Plant response rating, Nutsedge (purple nutsedge; [4]): 0 | Nutsedge plant response rating (purple nutsedge; [5]): 0 | Plant response rating, Nutsedge (purple nutsedge; [7]): 0 | Soybean plant response rating (soybean; [1]): 4 | Soybean plant response rating (soybean; [2]): 5 | Plant response rating, Soybean (soybean; [3]): 0 | Plant response rating, Soybean (soybean; [4]): 0 | Soybean plant response rating (soybean; [5]): 0 | Soybean plant response rating (soybean; [6]): 3 | Plant response rating, Soybean (soybean; [7]): 0 | Ducksalad plant response rating (duck salad; [2]): 0 | Ducksalad plant response rating (duck salad; [8]): 0 | Ducksalad plant response rating (duck salad; [9]): 0 | Ducksalad plant response rating (duck salad; [10]): 0 | Corn plant response rating (corn; [1]): 0 | Corn plant response rating (corn; [2]): 3 | Plant response rating, Corn (corn; [3]): 0 | Plant response rating, Corn (corn; [4]): 0 | Corn plant response rating (corn; [5]): 0 | Corn plant response rating (corn; [6]): 0 | Corn plant response rating (corn; [11]): 0 | Plant response rating, Corn (corn; [7]): 3 | Redroot pigweed plant response rating (pigweed; [1]): 0 | Redroot pigweed plant response rating (pigweed; [2]): 5 | Plant response rating, Redroot pigweed (pigweed; [3]): 4 | Plant response rating, Redroot pigweed (pigweed; [4]): 5 | Redroot pigweed plant response rating (pigweed; [5]): 5 | Redroot pigweed plant response rating (pigweed; [6]): 0 | Redroot pigweed plant response rating (pigweed; [11]): 0 | Plant response rating, Redroot pigweed (pigweed; [7]): 7

CCN(CC)C(=O)n1oc(=O)n(-c2ccc(OC(F)(F)F)cc2)c1=O [Compound 12]
Wild oats plant response rating (wild oat; [1]): 0 | Wild oats plant response rating (wild oat; [2]): 0 | Plant response rating, Wild oats (wild oat; [3]): 0 | Plant response rating, Wild oats (wild oat; [4]): 0 | Wild oats plant response rating (wild oat; [5]): 0 | Wild oats plant response rating (wild oat; [6]): 0 | Plant response rating, Wild oats (wild oat; [7]): 0 | Sugarbeets plant response rating (sugar beet; [1]): 0 | Sugarbeets plant response rating (sugar beet; [2]): 0 | Plant response rating, Sugarbeets (sugar beet; [3]): 0 | Plant response rating, Sugarbeets (sugar beet; [4]): 0 | Sugarbeets plant response rating (sugar beet; [5]): 0 | Sugarbeets plant response rating (sugar beet; [6]): 0 | Plant response rating, Sugarbeets (sugar beet; [7]): 0 | Rice plant response rating (rice; [2]): 0 | Rice plant response rating (rice; [8]): 0 | Rice plant response rating (rice; [9]): 0 | Rice plant response rating (rice; [10]): 0 | Bedstraw plant response rating (bedstraw; [1]): 0 | Bedstraw plant response rating (bedstraw; [2]): 0 | Plant response rating, Bedstraw (bedstraw; [3]): 0 | Plant response rating, Bedstraw (bedstraw; [4]): 0 | Bedstraw plant response rating (bedstraw; [5]): 0 | Bedstraw plant response rating (bedstraw; [6]): 0 | Bedstraw plant response rating (bedstraw; [11]): 0 | Plant response rating, Bedstraw (bedstraw; [7]): 0 | Rape plant response rating (rape; [1]): 0 | Rape plant response rating (rape; [2]): 0 | Plant response rating, Rape (rape; [3]): 0 | Plant response rating, Rape (rape; [4]): 0 | Rape plant response rating (rape; [5]): 0 | Rape plant response rating (rape; [6]): 0 | Rape plant response rating (rape; [11]): 0 | Plant response rating, Rape (rape; [7]): 0 | S. Flatsedge plant response rating (smallflower flatsedge; [2]): 0 | S. Flatsedge plant response rating (smallflower flatsedge; [8]): 0 | S. Flatsedge plant response rating (smallflower flatsedge; [10]): 0 | Giant foxtail plant response rating (giant foxtail; [1]): 0 | Giant foxtail plant response rating (giant foxtail; [2]): 0 | Plant response rating, Giant foxtail (giant foxtail; [3]): 0 | Plant response rating, Giant foxtail (giant foxtail; [4]): 0 | Giant foxtail plant response rating (giant foxtail; [5]): 2 | Giant foxtail plant response rating (giant foxtail; [6]): 0 | Giant foxtail plant response rating (giant foxtail; [11]): 0 | Plant response rating, Giant foxtail (giant foxtail; [7]): 8 | B. signalgrass plant response rating (surinam grass; [1]): 0 | B. signalgrass plant response rating (surinam grass; [2]): 0 | Plant response rating, B. signalgrass (surinam grass; [3]): 0 | Plant response rating, B. signalgrass (surinam grass; [4]): 0 | B. signalgrass plant response rating (surinam grass; [5]): 0 | B. signalgrass plant response rating (surinam grass; [6]): 0 | B. signalgrass plant response rating (surinam grass; [11]): 0 | Plant response rating, B. signalgrass (surinam grass; [7]): 6 | Cocklebur plant response rating (cocklebur; [1]): 0 | Cocklebur plant response rating (cocklebur; [2]): 0 | Plant response rating, Cocklebur (cocklebur; [3]): 0 | Plant response rating, Cocklebur (cocklebur; [4]): 0 | Cocklebur plant response rating (cocklebur; [5]): 0 | Cocklebur plant response rating (cocklebur; [6]): 0 | Cocklebur plant response rating (cocklebur; [11]): 0 | Plant response rating, Cocklebur (cocklebur; [7]): 0 | Wheat plant response rating (wheat; [1]): 0 | Wheat plant response rating (wheat; [2]): 0 | Plant response rating, Wheat (wheat; [3]): 0 | Plant response rating, Wheat (wheat; [4]): 0 | Wheat plant response rating (wheat; [5]): 0 | Wheat plant response rating (wheat; [6]): 0 | Plant response rating, Wheat (wheat; [7]): 0 | Velvetleaf plant response rating (velvetleaf; [1]): 0 | Velvetleaf plant response rating (velvetleaf; [2]): 0 | Plant response rating, Velvetleaf (velvetleaf; [3]): 0 | Plant response rating, Velvetleaf (velvetleaf; [4]): 0 | Velvetleaf plant response rating (velvetleaf; [5]): 0 | Velvetleaf plant response rating (velvetleaf; [6]): 0 | Plant response rating, Velvetleaf (velvetleaf; [7]): 0 | Nutsedge plant response rating (purple nutsedge; [1]): 0 | Nutsedge plant response rating (purple nutsedge; [2]): 0 | Plant response rating, Nutsedge (purple nutsedge; [3]): 0 | Plant response rating, Nutsedge (purple nutsedge; [4]): 0 | Nutsedge plant response rating (purple nutsedge; [5]): 0 | Nutsedge plant response rating (purple nutsedge; [6]): 0 | Nutsedge plant response rating (purple nutsedge; [11]): 0 | Plant response rating, Nutsedge (purple nutsedge; [7]): 0 | Soybean plant response rating (soybean; [1]): 0 | Soybean plant response rating (soybean; [2]): 1 | Plant response rating, Soybean (soybean; [3]): 0 | Plant response rating, Soybean (soybean; [4]): 0 | Soybean plant response rating (soybean; [5]): 0 | Soybean plant response rating (soybean; [6]): 0 | Plant response rating, Soybean (soybean; [7]): 0 | Ducksalad plant response rating (duck salad; [2]): 0 | Ducksalad plant response rating (duck salad; [8]): 0 | Ducksalad plant response rating (duck salad; [9]): 0 | Ducksalad plant response rating (duck salad; [10]): 0 | Corn plant response rating (corn; [1]): 0 | Corn plant response rating (corn; [2]): 0 | Plant response rating, Corn (corn; [3]): 0 | Plant response rating, Corn (corn; [4]): 0 | Corn plant response rating (corn; [5]): 0 | Corn plant response rating (corn; [6]): 0 | Corn plant response rating (corn; [11]): 0 | Plant response rating, Corn (corn; [7]): 0 | Redroot pigweed plant response rating (pigweed; [1]): 0 | Redroot pigweed plant response rating (pigweed; [2]): 0 | Plant response rating, Redroot pigweed (pigweed; [3]): 0 | Plant response rating, Redroot pigweed (pigweed; [4]): 0 | Redroot pigweed plant response rating (pigweed; [5]): 0 | Redroot pigweed plant response rating (pigweed; [6]): 0 | Redroot pigweed plant response rating (pigweed; [11]): 0 | Plant response rating, Redroot pigweed (pigweed; [7]): 0
